From US20250034139A1, “AMINE COMPOUNDS HAVING ANTI-INFLAMMATORY, ANTIFUNGAL, ANTIPARASITIC, AND ANTICANCER ACTIVITY” (PHARMA CINQ, LLC, priority 2013, published 2025)
Read-outs that look alike come from different tables or passages of the source.

Legend:
[1] = system: 4T1 mouse mammary breast cancer cells; test: Example O: syngeneic 4T1 breast cancer growth in Balb/C mice; assay type: in vivo; settings: 4T1 in female Balb/C mice; for Final Tumor Volume: 120 μmol/kg/day oral gavage, day 2 to day 30; for Δ BW % / Final Body Weight / Initial Body Weight: 120 μmol/kg/day oral; for Δ BW %: final vs initial body weight; for Final Body Weight: in g (unit assumed); for Initial Body Weight: initial (baseline)
In short: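 Syngeneic 4T1 tumors in immunocompetent Balb/C mice; compounds dosed orally by gavage in 1% HPMC, 120 μmol/kg/day, from day 2 to day 30. Tumor growth by caliper twice weekly plus tumor weight at necropsy; body weight monitored.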

[2] = system: imiquimod-induced dermatitis; settings: for Ear thickness, Mean ± SEM: imiquimod-treated mice; for PASI Score, Mean ± SEM: scale 0-12
In short: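 Female Balb/C mice (8 weeks, n=5/group) received 5% imiquimod on both ears daily for 5 days, then every other day; topical test ointments applied to both ears from day 7. Petrolatum with 10% ethanol served as vehicle. Ear thickness and PASI (swelling, erythema, scaling, 0–12) recorded twice weekly.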

[3] = system: C. neoformans (serotype A) phagocytosed by THP-1-derived macrophages; test: Example M: phagocytosed Cryptococcus neoformans antifungal screen in THP-1-derived macrophages; assay type: cell-based; settings: for inhibition of fungal growth after phagocytosis and lysis, in words: 0.5, 1 or 2 μM; for IC50: after macrophage phagocytosis and lysis
Method: Two concentrations of macrophages (1×10^5 and 2×10^5/well) and a high concentration of C. neoformans (4×10^6/well) (MOI values of 40 and 20 respectively) were tested in this experiment.
THP-1 cells were adjusted to 5×10^5/ml or 1×10^6/ml in cRPMI+PMA
200 μl was transferred to a flat-bottomed 96-well dish (1×10^5 and 2×10^5/well) (48 hrs at 37 C) Media was removed and fresh cRPMI+PMA added (further 24 hrs at 37 C)
C. neoformans cells in DPBS were opsonized with human serum (60 mins at 30 C)
The opsonized yeast was washed (DPBS) and resuspended at 1×10^7/ml or 2×10^7/ml in cRPMI. 100 μl added to macrophage plate (1×10^6 and 2×10^6/well) (4 hrs at 37 C) washed ×4 with DPBS 100 μl of cRPMI was added to each well (18 hrs at 37 C) Compound AC was added to some wells. Media was removed, no wash, 25 μl 0.05% Triton X-100 added to lyse cells (3 mins RT rocking) 125 μl YPD broth was added and the plate incubated (24 hrs at 30 C then 24 hrs at 37 C) C. neoformans growth was determined on a Spectrophotometer (600 nm) after 24 and 48 hours
THP-1 cells (p15) grown in cRPMI [RPMI (Lonza 12-115F) plus 10% ΔFBS (Lonza DE14-701F)] were counted on a hemacytometer. Cells were spun at 1,800 rpm, RT for 5 mins, supernatant aspirated, pellet disturbed then adjusted to 5.0×10^5/ml and 1.0×10^6/ml in cRPMI supplemented with 0.2 μg/ml phorbol 12-myristate 13-acetate (PMA) (1 mg/ml in DMSO Sigma P8139). 200 μl aliquots of each cell concentration were transferred to […] (half a plate) of a flat-bottomed 96-well dish (1×10^5 and 2×10^5/well) and placed in a 37 C incubator for 48 hours, media was then removed and 200 μl of fresh cRPMI+PMA added. The plate was incubated for an additional 24 hours at 37 C then processed for yeast uptake.
In parallel to macrophage preparation, C. neoformans cells were grown from a single colony in 20 ml YPD broth at 30 C overnight. Absorbance of 1:10 dilution of the overnight (ON) culture gave 0.89 OD at 600 nm. Estimated concentration of this stock was 4×10^8 cells/ml (2×10^8 cells/ml gave an OD 600 nm of 0.426 in an earlier study Cryptococcus macrophage development plate 3 ML113012). The cells were washed with DPBS once and resuspended in 2 ml DPBS. 230 μl of this stock (˜60×10^7 cells) was brought up to 500 μl with DPBS in an Eppendorf tube. For opsonization, 500 μl of human serum (SIGMA S7023) was added and the tube incubated at 30 C for 60 mins with orbital shaking. […] A 1:200 dilution of cells was counted (4.25×10^6/ml), equivalent to 8.5×10^8/ml for the 1× stock. 470 μl of the 1× stock was brought up to 10 ml with cRPMI for a final concentration of 4×10^7/ml.
Media was aspirated from the prepared macrophage plate and 100 μl of the opsonized fungal cell suspension added to the wells. Media without yeast was added to triplicate wells for each macrophage concentration to provide background readings. Three empty wells (no macrophages) were seeded with fungus to serve as the wash control. The plates were then incubated at 37 C for 4 hours then washed 4 times with DPBS (plates were shakes briefly after addition of DPBS to increase wash efficiency). 144 μl of cRPMI was added to each well and 6 μl of 12.5 μM, 25 μM and 50 μM stocks of compounds AM, BM, AH, and AC added in triplicate for final concentrations of 0.5 μM, 1 μM or 2 μM. The plate was incubated at 37 C, 5% CO2 for 18 hours. Media was removed, 25 μl of 0.05% Triton X-100 (SIGMA T-9284) in DPBS was added to each well and the plate rocked at RT for 3 min, to lyse the cells. 125 μl YPD broth (KD Medical YLF-3260) was then added to each well and the plate placed in a 30 C incubator. C. neoformans cell growth was determined by measuring absorbance at 600 nm on a Spectrophotometer (Spectra Max Plus using program SoftMax Pro) after […].

[4] = topical ointment 0.06% active drug (dexamethasone 0.03%, tacrolimus 0.1%)
[5] = Cryptococcus neoformans, read-out: IC50 value (μM) for inhibition of fungal growth, 1 × 10^5 macrophages
[6] = Cryptococcus neoformans, read-out: IC50 value (μM) for inhibition of fungal growth, 2 × 10^5 macrophages

| Structure (SMILES) | D BW (g) ([2]; mouse, in vivo) | D BW ([2]; mouse, in vivo) | Hair growth on the imiquimod-affected head area, in words ([2]; mouse, in vivo) | Final Tumor Volume [1] | Δ BW % [1] | Final Body Weight [1] | Initial Body Weight [1] | Ear thickness, Mean ± SEM [2, 4] | Body Weight (mean ± SEM), Final ([2]; mouse, in vivo) | Body Weight (mean ± SEM), Initial ([2]; mouse, in vivo) | PASI Score, Mean ± SEM [2, 4] | Ear thickness, Mean ± SEM ([2]; topical ointment AF 0.6%) | PASI Score, Mean ± SEM ([2]; topical ointment AF 0.6%) | inhibition of fungal growth after phagocytosis and lysis, in words [3] | IC50 [3, 5] | IC50 [3, 6] | inhibition at 2 µM ([3]; Cryptococcus neoformans, Macrophage, at 2 μM, after phagocytosis, read-out: inhibition of the fungal growth) |
| --- | --- | --- | --- | --- | --- | --- | --- | --- | --- | --- | --- | --- | --- | --- | --- | --- | --- |
| CCCCCCOc1ccc(CNc2ccnc3ccccc23)cc1 [AA, N-[4-(Hexyloxy)benzyl]quinolin-4-amine] | – | – | – | 563 ± 175 mm^3 | −5.1% | 20.3 ± 1.3 | 21.4 ± 1.0 g | – | – | – | – | – | – | – | – | – | – |
| CCCCOCCCCCCCCCCNc1ccnc2ccccc12 [AM, N-(10-Butoxydecyl)quinolin-4-amine] | – | – | – | – | – | – | – | – | – | – | – | – | – | clear dose dependent inhibition of fungal growth after phagocytosis and lysis | 1.13 µM | 0.85 µM | – |
| CCCCCCOc1cccc(CNc2ccnc3ccccc23)c1 [Compound AC, N-[3-(Hexyloxy)benzyl]quinolin-4-amine] | +0.2 g | – | – | 723 ± 185 mm^3 | −8.4% | 19.7 ± 1.1 | 21.5 ± 1.0 g | 0.501 ± 0.030 | 21.3 ± 0.6 g | 21.1 ± 0.7 g | 7.150 ± 0.221 | – | – | clear dose dependent inhibition of fungal growth after phagocytosis and lysis | 1.29 µM | 1.35 µM | – |
| CCCCCCCCCCNc1ncnc2ccccc12 [Compound AH, N-(Decyl)quinazolin-4-amine] | – | – | – | – | – | – | – | – | – | – | – | – | – | clear dose dependent inhibition of fungal growth after phagocytosis and lysis | 0.29 µM | 0.25 µM | ~100% |

Further lines, with some results ahead:

| D BW (g) ([2]; mouse, in vivo) | D BW ([2]; mouse, in vivo) | Hair growth on the imiquimod-affected head area, in words ([2]; mouse, in vivo) | Structure (SMILES) | Final Tumor Volume [1] | Δ BW % [1] | Final Body Weight [1] | Initial Body Weight [1] | Ear thickness, Mean ± SEM [2, 4] | Body Weight (mean ± SEM), Final ([2]; mouse, in vivo) | Body Weight (mean ± SEM), Initial ([2]; mouse, in vivo) | PASI Score, Mean ± SEM [2, 4] | Ear thickness, Mean ± SEM ([2]; topical ointment AF 0.6%) | PASI Score, Mean ± SEM ([2]; topical ointment AF 0.6%) | inhibition of fungal growth after phagocytosis and lysis, in words [3] | IC50 [3, 5] | IC50 [3, 6] | inhibition at 2 µM ([3]; Cryptococcus neoformans, Macrophage, at 2 μM, after phagocytosis, read-out: inhibition of the fungal growth) |
| --- | --- | --- | --- | --- | --- | --- | --- | --- | --- | --- | --- | --- | --- | --- | --- | --- | --- |
| +0.4 g | – | – | COc1ccc(OCCCCCCCCNc2ncnc3ccccc23)cc1 [AE, N-[8-(4-Methoxyphenoxy)octyl]quinazolin-4-amine] | – | – | – | – | 0.846 ± 0.023 | 21.3 ± 0.4 g | 20.9 ± 0.5 g | 11.550 ± 0.281 | – | – | – | – | – | – |
| +0.4 g | -0.4 g | hair growth was maintained | c1ccc(Oc2cccc(CNc3ccnc4ccccc34)c2)cc1 [AF, N-(3-Phenoxybenzyl)quinolin-4-amine] | – | – | – | – | 0.355 ± 0.005 | – | – | 3.575 ± 0.158 | 0.390 ± 0.008 | 4.875 ± 0.155 | – | – | – | – |
| +0.1 g | – | – | c1ccc(Oc2cccc(CNc3ncnc4ccccc34)c2)cc1 [BM, N-(3-Phenoxybenzyl)quinazolin-4-amine] | – | – | – | – | 0.577 ± 0.019 | 20.9 ± 0.6 g | 20.8 ± 0.7 g | 9.250 ± 0.183 | – | – | clear dose dependent inhibition of fungal growth after phagocytosis and lysis | 1.8 µM | 1.31 µM | – |
